Where two headings read alike, the source gives them in different places. Blank lines part the entries; values can stand above or below the compound they belong to.
Columns and labels:
[1] = from SDS of each solvent, cited from earlier work
[2] = Viscosity of solvent compositions (modular compact rheometer); type: physicochemical; details: solvent mixed with 0.1 wt % BHT and 4x PGR composition; 25° C.
Protocol: (§1) Propylene glycol was used as a control. The evaluated solvents, along with the mass of each PGR component and BHT, are shown below in Table 4. The density and viscosity of the solvent compositions were then determined. The density measurements were obtained using a DMA™ 4500, which was calibrated using 20° C. DI water. Viscosity was determined using a modular compact rheometer. Viscosity levels were measured at 25° C.

[3] = Two-week stability test of solvent / Warden CX mixtures (viscosity, density); type: physicochemical; details: mixture with Warden CX; for Post: Density / Post: Viscosity: after two weeks at 54° C., 4° C. and/or −10° C.; for Pre: Viscosity: before two-week stability test
Protocol: The same seven solvent compositions were then evaluated for their compatibility with Warden® CX, which is a combination of fungicide and insecticide (containing a proprietary solvent) formulated for soybean seed treatment and sold by Winfield® United. Specifically, 0.5 fl. oz./cwt. of each experimental solvent was added to 50 mL of Warden® CX. […] The mixtures were then evaluated for stability by placing the samples at 54° C., 4° C. and/or at −10° C. for a two-week period. Viscosity levels were measured before and after the two-week stability test, along with the post-test density levels, and the results shown below in Table 6.

[4] = Active ingredient loading of PGR components in solvent compositions by HPLC; type: physicochemical
Excerpt: To understand if changing the active component loading rate would impact the biological performance of the PGR compositions, two solvent compositions, methoxy propanol and tetrahydrofuryl alcohol, were mixed with various PGR compositions (4×) selected for their favorable solubility properties, curing properties, and compatibility with Rhizobia. Propylene glycol was again included as a control sample, and each composition was mixed with BHT (4×). Citric acid was excluded from all samples. The weight percentage of each PGR component mixed with each solvent composition is shown below in Table 7.
The HPLC was performed using an Agilent 1260 device with a diode-array detector for active component quantification.
[…]. As shown, the deviation was less than 1% for each composition.

[5] = Density of solvent compositions (DMA 4500); type: physicochemical; details: solvent mixed with 0.1 wt % BHT and 4x PGR composition
Protocol: as §1

Compound: Ethyl hexanol
Boiling Point [1]: 185 C. ° | Density [1]: 0.833 g/mL | Flash Point [1]: 75 C. °

Compound: CCCCCOC(C)=O [Amyl Acetate]
Boiling Point [1]: 149 C. ° | Density [1]: 0.87 g/mL | Flash Point [1]: 40 C. ° | Solubility [1]: Insoluble | Viscosity [1]: 1.58 cP

Compound: CC(O)CO (centres unmarked) [Propylene Glycol, reference compound]
Boiling Point [1]: 205 C. ° | Density [1]: 1.12 g/mL | Flash Point [1]: 138 C. ° | Solubility [1]: Soluble | Solubility ([1]; listed as propylene glycol): soluble

Viscosity [2]: 5.0736 cPa | Post: Density [3]: 1.1067 g/mL | Post: Viscosity [3]: 387.57 cPa | Pre: Viscosity [3]: 901.94 cPa
Compound: CCCCOC(=O)C(C)O (centres unmarked) [Butyl lactate]
Boiling Point [1]: 186 C. ° | Density [1]: 0.984 g/mL | Flash Point [1]: 69 C. ° | Solubility [1]: Slightly

Compound: CCCCC(CC)COC(=O)C(C)O (centres unmarked) [Lactic acid, 2-ethylhexyl ester]
Boiling Point [1]: 122 C. ° | Density [1]: 1.2 g/mL

Viscosity [2]: 5.4046 cPa | Aux. by HPLC ([4]; 6th composition of Table 7, auxin added 0.4958%): 0.497% | Cyt. by HPLC ([4]; 6th composition of Table 7, cytokinin added 0.094%): 0.108% | Gib. by HPLC ([4]; 6th composition of Table 7, gibberellin added 0.0804%): 0.081% | Post: Density [3]: 1.0825 g/mL | Post: Viscosity [3]: 150.59 cPa | Pre: Viscosity [3]: 962.75 cPa | Density [5]: 1.0548 g/mL
Compound: OCC1CCCO1 (centres unmarked) [Tetrahydrofurfyl Alcohol]
Boiling Point [1]: 178 C. ° | Density [1]: 1.054 g/mL | Flash Point [1]: 75 C. ° | Solubility [1]: Miscible

Compound: CC(=O)OCC(COC(C)=O)OC(C)=O [Glyceryl triacetate]
Boiling Point [1]: 259 C. ° | Density [1]: 1.158 g/mL | Flash Point [1]: 148 C. ° | Solubility [1]: Soluble | Solubility ([1]; listed as glyceryl triacetate): soluble

Compound: CC(=O)OCCCCCCC=O [Oxo-heptyl acetate]
Boiling Point [1]: 192 C. ° | Density [1]: 0.886 g/mL | Flash Point [1]: 43 C. ° | Solubility [1]: Slightly

Viscosity [2]: 7.7338 cPa | Post: Density [3]: 1.0486 g/mL | Post: Viscosity [3]: 45.06 cPa | Pre: Viscosity [3]: 112.48 cPa
Compound: CCCCOCCOCCO [Diethylene glycol butyl ether]
Boiling Point [1]: 228 C. ° | Density [1]: 0.953 g/mL | Flash Point [1]: 99 C. ° | Solubility [1]: Miscible

Compound: CCCCOCCO [Ethylene glycol butyl ether, 2-butoxyl ethanol]
Boiling Point [1]: 171 C. ° | Density [1]: 0.902 g/mL | Flash Point [1]: 67 C. ° | Post: Density [3]: 1.0263 g/mL | Post: Viscosity [3]: 69.69 cPa | Pre: Viscosity [3]: 138.49 cPa

Compound: CCOC(C)=O [Ethyl acetate]
Boiling Point [1]: 77 C. ° | Flash Point [1]: −4.4 C. ° | Solubility [1]: Miscible

Compound: COCC(C)O (centres unmarked) [1-methoxy-2-propanol]
Aux. by HPLC ([4]; 1st composition of Table 7, auxin added 0.6596%): 0.674% | Cyt. by HPLC ([4]; 1st composition of Table 7, cytokinin added 0.0614%): 0.072% | Gib. by HPLC ([4]; 1st composition of Table 7, gibberellin added 0.0460%): 0.046% | Aux. by HPLC ([4]; 2nd composition of Table 7, auxin added 0.6136%): 0.630% | Cyt. by HPLC ([4]; 2nd composition of Table 7, cytokinin added 0.1074%): 0.126% | Gib. by HPLC ([4]; 2nd composition of Table 7, gibberellin added 0.0460%): 0.045% | Aux. by HPLC ([4]; 3rd composition of Table 7, auxin added 0.5215%): 0.531% | Cyt. by HPLC ([4]; 3rd composition of Table 7, cytokinin added 0.1534%): 0.178% | Gib. by HPLC ([4]; 3rd composition of Table 7, gibberellin added 0.0920%): 0.088% | Aux. by HPLC ([4]; 4th composition of Table 7, auxin added 0.4985%): 0.502% | Cyt. by HPLC ([4]; 4th composition of Table 7, cytokinin added 0.1994%): 0.235% | Gib. by HPLC ([4]; 4th composition of Table 7, gibberellin added 0.0690%): 0.069% | Aux. by HPLC ([4]; 5th composition of Table 7, auxin added 0.5675%): 0.579% | Cyt. by HPLC ([4]; 5th composition of Table 7, cytokinin added 0.1074%): 0.130% | Gib. by HPLC ([4]; 5th composition of Table 7, gibberellin added 0.0920%): 0.089% | Boiling Point [1]: 118 C. ° | Density [1]: 0.916 g/mL | Flash Point [1]: 34 C. ° | change of viscosity over the two-week period [3]: decreasing the most | Post: Density [3]: 1.0440 g/mL | Post: Viscosity [3]: 106.18 cPa | Pre: Viscosity [3]: 1764.63 cPa

— patent US11812753B2, “Solvent compositions promoting plant growth” (priority 2020, dated 2023)
